Measured values reported in patent US5624952A, “[(Benzodioxan, benzofuran or benzopyran) alkylamino] alkyl substituted guanidines” (Janssen Pharmaceutica N.V., priority 1993, dated 1997).
Structures can show the parent of a compound that is named as a salt. Each block holds one compound with its values, some of them ahead of it.

System: basilar arteries of pigs
Assay: Constriction of isolated basilar artery segments of pigs in organ baths (serotonin-like response)
Details: Sus scrofa; pig basilar artery segments, 37° C., Krebs-Henseleit; relative to serotonin 3×10^-7 M; estimated from three different preparations; read-out: ED50 (molar concentration at which a test compound causes 50% of the constrictive response obtained with serotonin)
Experimental: Segments of basilar aeries taken from pigs (anaesthetised with sodium pentobarbital) were mounted for recording of isometric tension in organ baths. The preparations were bathed in Krebs--Henseleit solution. The solution was kept at 37° C. and gassed with a mixture of 95% O2 -5% CO2. The Preparations were stretched until a stable basal tension of 2 grams was obtained.
The preparations were made to constrict with serotonin (3×10^-7 M). The response to the addition of serotonin was measured and subsequently the serotonin was washed away.
This Procedure was repeated until stable responses were obtained.
Subsequently the test compound was administered to the organ bath and the constriction of the Preparation was measured. This constrictive response is expressed as a Percentage of the response to serotonin as measured Previously.
The ED50 -value (molar concentration) is defined as the concentration at which a test compound causes 50% of the constrictive response obtained with serotonin. Said
ED50 -values are estimated from experiments on three different preparations.

Structure (SMILES): Brc1ccc2c(c1)CCC(CNCCCNC1=NCCCN1)O2 (racemic) [Compound 56, (±)-N-[(6-bromo-3,4-dihydro-2H-1-benzopyran-2-yl)methyl]-N'-(1,4,5,6-tetrahydro-2-pyrimidinyl)-1,3-propanediamine ethanedioate(1:2)]
EC50: 187 nM

Structure (SMILES): Fc1ccc2c(c1)CCC(CNCCCNc1ncccn1)O2 (centres unmarked) [Compound 3]
EC50: 146 nM

Structure (SMILES): Fc1ccc2c(c1)CC[C@H](CNCCCNc1ncccn1)O2 [Compound 13]
EC50: 42.2 nM

Structure (SMILES): CCc1ccc2c(c1)OC(CNCCCCNc1ncccn1)CC2 (centres unmarked) [Compound 18]
EC50: 49 nM

Structure (SMILES): Fc1ccc2c(c1)CC[C@H](CNCCNc1ncccn1)O2 [Compound 46, (-)-(R)-N-[(6-fluoro-3,4-dihydro-2H-1-benzopyran-2yl)methyl]-N'-(2-pyrimidinyl)-1,2-ethanediamine]
EC50: 1000 nM

Structure (SMILES): c1ccc2c(c1)CC[C@H](CNCCCNC1=NCCCN1)O2 [Compound 62, (-)-(R)-N-[(3,4-dihydro-2H-1-benzopyran-2-yl)methyl]-N'-(1,4,5,6-tetrahydro-2-pyrimidinyl)-1,3-propanediamine dihydrochloride hemihydrate]
EC50: 31.7 nM

Structure (SMILES): c1ccc2c(c1)OCC(CNCCCNC1=NCCCN1)O2 (centres unmarked) [Compound 64]
EC50: 89.7 nM

Structure (SMILES): c1ccc2c(c1)CC(CNCCCNC1=NCCCN1)O2 (centres unmarked) [Compound 66]
EC50: 656 nM

Structure (SMILES): Fc1ccc2c(c1)CC[C@H](CNCCCNC1=NCCCN1)O2 [Compound 70]
EC50: 6.37 nM

Structure (SMILES): Fc1ccc2c(c1)OC(CNCCCNC1=NCCCN1)CC2 (centres unmarked) [Compound 72]
EC50: 23.4 nM

Structure (SMILES): CCc1ccc2c(c1)OC(CNCCCNC1=NCCCN1)CC2 (centres unmarked) [Compound 73]
EC50: 3.46 nM

Structure (SMILES): COc1cccc2c1OC(CNCCCNC1=NCCCN1)CC2 (centres unmarked) [Compound 76]
EC50: 9.19 nM

Structure (SMILES): COc1ccc2c(c1)OC(CNCCCNC1=NCCCN1)CC2 (centres unmarked) [Compound 78]
EC50: 35.4 nM

Structure (SMILES): CCCCc1ccc2c(c1)OC(CNCCCNC1=NCCCN1)CC2 (centres unmarked) [Compound 87]
EC50: 88.7 nM

Structure (SMILES): c1ccc2c(c1)CCC(CNCCCCCNC1=NCCCN1)O2 (centres unmarked) [Compound 98]
EC50: 34.2 nM

Structure (SMILES): Fc1ccc2c(c1)CCC(CNCCCNC1=NCCN1)O2 (centres unmarked) [Compound 106]
EC50: 39 nM

Structure (SMILES): c1ccc2c(c1)CCC(CNCCCNc1nccnn1)O2 (centres unmarked) [Compound 115]
EC50: 45.1 nM

Structure (SMILES): c1ccc2c(c1)CCC(CNCCNC1=NCCN1)O2 (centres unmarked) [Compound 129]
EC50: 444 nM

Structure (SMILES): CCc1ccc2c(c1)OC(CNCCCNC1=NCCN1)CC2 (centres unmarked) [Compound 133]
EC50: 52.7 nM

Structure (SMILES): c1ccc2c(c1)CCC(CN1CCC(NC3=NCCCN3)CC1)O2 (centres unmarked) [Compound 136]
EC50: 810 nM

Further compounds by falling EC50, results first:

EC50: 542 nM
Structure (SMILES): c1ccc2c(c1)CCC(CNCCNC1=NCCCN1)O2 (centres unmarked) [Compound 57]

EC50: 515 nM
Structure (SMILES): c1cnc(NCCCNC[C@@H]2CCc3ccccc3O2)nc1 [Compound 5]

EC50: 495 nM
Structure (SMILES): CCNC(=N)NCCNCC1CCc2ccccc2O1 (centres unmarked) [Compound 148]

EC50: 306 nM
Structure (SMILES): c1cnc(NCCCCNCC2CCc3ccccc3O2)nc1 (centres unmarked) [Compound 48]

EC50: 221 nM
Structure (SMILES): c1ccc2c(c1)CC[C@@H](CNCCCNC1=NCCCN1)O2 [Compound 65]

EC50: 150 nM
Structure (SMILES): c1ccc2c(c1)CC[C@H](CN1CCC(NC3=NCCCN3)CC1)O2 [Compound 139]

EC50: 121 nM
Structure (SMILES): Fc1ccc2c(c1)CCC(CNCCCNC1=NCCCN1)O2 (centres unmarked) [Compound 63]

EC50: 99.2 nM
Structure (SMILES): CCCNC(=N)NCCCNCC1CCc2ccccc2O1 (centres unmarked) [Compound 149]

EC50: 97.6 nM
Structure (SMILES): c1ccc2c(c1)CCC(CNCCCCNC1=NCCCN1)O2 (centres unmarked) [Compound 97]

EC50: 95.6 nM
Structure (SMILES): NC(=O)c1ccnc(NCCCNCC2CCc3ccccc3O2)n1 (centres unmarked) [Compound 114]

EC50: 81.7 nM
Structure (SMILES): c1ccc2c(c1)CCC(CNCCCNC1=NCCCN1)O2 (racemic) [Compound 95, (±)-N-[(3,4-dihydro-2H-1-benzopyran-2-yl)methyl]-N'-(1,4,5,6-tetrahydro-2-pyrimidinyl)-1,3-propanediamine dihydrochloride]

EC50: 79.4 nM
Structure (SMILES): CC(C)(C)c1ccc2c(c1)OC(CNCCCNC1=NCCCN1)CC2 (centres unmarked) [Compound 89]

EC50: 68.2 nM
Structure (SMILES): CCc1ccc2c(c1)OC(CNCCCNC1=NCCCCN1)CC2 (centres unmarked) [Compound 116]

EC50: 56 nM
Structure (SMILES): Cc1ccc2c(c1)OC(CNCCCNC(=N)N(C)C)CC2 (centres unmarked) [Compound 152]

EC50: 46.9 nM
Structure (SMILES): CC(C)NC(=N)NCCCNCC1CCc2ccccc2O1 (racemic) [Compound 150, (±)-N-[3-[[(3,4-dihydro-2H-1-benzopyran-2-yl)methyl]amino]propyl]-N'-(1-methylethyl)-guanidine dihydrochloride]

EC50: 42.2 nM
Structure (SMILES): c1ccc2c(c1)CC[C@H](CNCCCCNC1=NCCCN1)O2 [Compound 99]

EC50: 41.6 nM
Structure (SMILES): CC(C)c1ccc2c(c1)OC(CNCCCNC1=NCCCN1)CC2 (centres unmarked) [Compound 86]

EC50: 33.6 nM
Structure (SMILES): c1ccc2c(c1)CCC(CNCCCNC1=NCCN1)O2 (centres unmarked) [Compound 130]

EC50: 33.3 nM
Structure (SMILES): Fc1ccc2c(c1)CCC(CNCCCCCCNC1=NCCCN1)O2 (centres unmarked) [Compound 68]

EC50: 27.1 nM
Structure (SMILES): CN(C)C(=N)NCCCNCC1CCc2ccccc2O1 (centres unmarked) [Compound 151]

EC50: 21.8 nM
Structure (SMILES): CCc1ccc2c(c1)OC(CNCCCNC(=N)N(C)C)CC2 (centres unmarked) [Compound 153]

EC50: 17.7 nM
Structure (SMILES): Cc1ccc2c(c1)OC(CNCCCNC1=NCCCN1)CC2 (centres unmarked) [Compound 67]

EC50: 17.6 nM
Structure (SMILES): CCc1ccc2c(c1)OC(CNCCCCCNC1=NCCCN1)CC2 (centres unmarked) [Compound 82]

EC50: 16.7 nM
Structure (SMILES): c1ccc2c(c1)CCC(CNCCCNC1=NCCCCN1)O2 (centres unmarked) [Compound 111]

EC50: 16.3 nM
Structure (SMILES): N#Cc1ccnc(NCCCNCC2CCc3ccccc3O2)n1 (centres unmarked) [Compound 113]

EC50: 13.3 nM
Structure (SMILES): Cc1cccc2c1OC(CNCCCNC1=NCCCN1)CC2 (centres unmarked) [Compound 84]

EC50: 7.02 nM
Structure (SMILES): CCCc1ccc2c(c1)OC(CNCCCNC1=NCCCN1)CC2 (centres unmarked) [Compound 88]
